According to US20230146699A1, “EDTA System for Reducing Browning in Mycohide Materials” (MycoWorks, Inc., priority 2021, published 2023):

System: mycohide sheets (mycelium crusts); browning by polyphenol oxidases (PPOs)
Test: Visual assessment of browning reduction in mycohide (mycelium) sheets/crusts treated with chelating agent
Settings: for reduction of surface browning (FIGS. 5-6): 1 mM and 5 mM chelator, plasticized mycohide, dried samples, 15% ALE fatliquor dip, EDTA compared with EGTA
Protocol: In some embodiments, full sized cotton sheets are treated as defined by four groups: 1) plasticization without any treatment, 2) EDTA treatment only after harvesting sheets (5 mM EDTA 14 in water added on top of mycelia layer after harvest and gently massaged; then plasticize this section in glycerin/water solution), 3) EDTA treatment only during plasticization (plasticize in glycerin/water solution 40%/60% glycerin to water with EDTA at 5 mM), and/or 4) EDTA treatment on both harvested sheets and during plasticization (see above for conditions).

| Structure (SMILES) | reduction of surface browning (FIGS. 5-6) | reduction of browning, crusts after fatliquoring, wet state (FIG. 9) (1 mM EDTA in water, 70 C for 0.5 hour first, vs control (no EDTA)) | reduction of browning, crusts after fatliquoring, wet state (FIG. 9) (5 mM EDTA, 70 C heating step, vs 1 mM EDTA) | reduction of browning, crusts after fatliquoring, dry state (FIG. 10) (5 mM vs 1 mM EDTA, with or without 70 C (0.5 hour) heating step) | color uniformity of mycelium sheets (EDTA treated sheets vs heat treatment with or without EDTA (FIGS. 16-18)) | browning after EDTA added at different process steps (FIG. 20A, 20B) (full sized cotton sheets, 5 mM EDTA and 16 mM NaOH after harvest and/or during plasticization, varied fat liquor solution conditions) | optimum concentration to achieve browning reduction (mycelium sheets, concentrations of EDTA and EGTA optimized) | effect of adding EDTA during tanning (D&S) (sheets previously treated with EDTA during harvest or plasticization (FIG. 18A, 18B)) |
| --- | --- | --- | --- | --- | --- | --- | --- | --- |
| O=C(O)CN(CCOCCOCCN(CC(=O)O)CC(=O)O)CC(=O)O [EGTA, egtazic acid] | may be effectively applied | – | – | – | – | – | – | – |
| O=C(O)CN(CCN(CC(=O)O)CC(=O)O)CC(=O)O [EDTA, ethylenediaminetetraacetic acid] | achieves greater reductions in browning | more effective at reducing browning than a control group | even greater reductions in browning | not more effective than a lower concentration of EDTA at reducing browning | best color uniformity | observed decrease in browning | 5 mM | added whitening effect |
